Measurements taken from ChEMBL document CHEMBL1687935, “Ferrocenyl chalcones versus organic chalcones: a comparative study of their nematocidal activity” (Bioorg Med Chem, 2011).
Calls of active or inactive are those of the source. The rule behind the calls is not given here.

Tests used:
Caenorhabditis elegans [1] = assay: Nematocidal activity against Caenorhabditis elegans assessed as mortality on day 3; format: functional; parameters: concentration or dose not given beside the values
Caenorhabditis elegans [2] = assay: Nematocidal activity against Caenorhabditis elegans assessed as inhibition of reproduction on day 3; format: functional
[3] = Inhibition of Globodera rostochiensis hatching; format: functional
[4] = Inhibition of Globodera pallida hatching; format: functional
[5] = Toxicity against Globodera rostochiensis
[6] = Toxicity against Globodera pallida
Plasmodium falciparum = assay: Antiplasmodial activity against Plasmodium falciparum; format: functional, organism-based

Row | Structure (SMILES) | Activity (Caenorhabditis elegans [1]) | inhibition (INH) (Caenorhabditis elegans [2]) [%] | other results
1 | CCCCOc1ccc(C(=O)/C=C/c2ccccc2)cc1 | Active | – | inhibition (Caenorhabditis elegans [2]): Active
2 | O=C(/C=C/c1ccccc1)c1cccc(Cl)c1 | 100% | 0 | –
3 | O=C(/C=C/c1ccccc1)c1ccc(Cl)cc1Cl | 100% | 0 | –
4 | O=C(/C=C/c1ccccc1)c1cccs1 | 100% | 0 | –
5 | O=C(/C=C/c1ccccc1)c1ccccc1 [CHALCONE] | 100% | 0 | IC50 [3]: 7 mM; IC50 [4]: 7 mM; LC50 [5]: 33 mM; LC50 [6]: 33 mM
6 | O=C(/C=C/c1ccccc1)c1ccco1 | Active | – | inhibition (Caenorhabditis elegans [2]): Active
7 | O=C(/C=C/c1cccnc1)c1ccc(F)cc1 | 100% | 0 | IC50 (Plasmodium falciparum): 0.017 mM
8 | O=C(/C=C/c1ccccc1)c1ccccc1Cl | Active | – | inhibition (Caenorhabditis elegans [2]): Active
9 | CCOc1ccc(C(=O)/C=C/c2ccccc2)cc1 | 100% | 0 | –
10 | COc1ccc(C(=O)/C=C/c2ccccc2)c(OC)c1 | 100% | 0 | –
11 | O=C(/C=C/c1ccccc1)c1ccc(F)cc1F | 100% | 0 | –
